Assay results from article PMC11392244, “Characterization of a unique catechol-O-methyltransferase as a molecular drug target in parasitic filarial nematodes” (PLOS Neglected Tropical Diseases, 2024).
Where “and” joins values, the source holds several entries; their conditions need not be identical. Identical values can stand only once. Like-named read-outs stand apart in the source and are kept apart here.

Assays:
DiMT protein = type: biochemical, Dirofilaria immitis
D. immitis microfilariae = experiment: In vitro efficacy against live D. immitis microfilariae (motility, completely immotile %); type: cell-based, Dirofilaria immitis; settings: for Completely Immotile Microfilariae (%): single experiments
mammalian cells = settings: read-out: Cytotoxicity IC50, ref Zhang et al., [30]; cited from earlier work

SMILES: CO[C@@H]1/C=C\O[C@]2(C)Oc3c(C)c(O)c4c(O)c(c(CN(C)C)c(O)c4c3C2=O)NC(=O)/C(C)=C\C=C[C@@H](C)[C@@H](O)[C@H](C)[C@@H](O)[C@H](C)[C@H](OC(C)=O)[C@@H]1C [NSC145612]
- Mean Percent Inhibition (DiMT protein; 50 µM): 68.4% and 38.5% and 36.2%
- Mean Percent Inhibition, Average (DiMT protein; 50 µM): 47.7%
- Mean Percent Inhibition (DiMT protein; 100 µM): 57.6% and 50.0% and 61.2%
- Mean Percent Inhibition, Average (DiMT protein; 100 µM): 56.3%
- Mean Percent Inhibition (DiMT protein; 150 µM): 66.2% and 62.4% and 82.9%
- Mean Percent Inhibition, Average (DiMT protein; 150 µM): 70.5%
- Mean Percent Inhibition (DiMT protein; 200 µM): 77.2% and 75.4% and 75.6%
- Mean Percent Inhibition, Average (DiMT protein; 200 µM): 76.1%
- Mean Percent Inhibition (DiMT protein; 250 µM): 84.0% and 87.6% and 81.7%
- Mean Percent Inhibition, Average (DiMT protein; 250 µM): 84.4%
- IC50 (DiMT protein; read-out: IC 50 (μM ± SEM)): 62.1 ± 1.8 µM
- Mean completely Immotile (%) (D. immitis microfilariae; 25 µM, 0 h): 0%
- Mean completely Immotile (%) (D. immitis microfilariae; 25 µM, 24 h): 4.67%
- Mean completely Immotile (%) (D. immitis microfilariae; 25 µM, 48 h): 10.17%
- Mean completely Immotile (%) (D. immitis microfilariae; 25 µM, 72 h): 25%
- Mean completely Immotile (%) (D. immitis microfilariae; 25 µM, 96 h): 38.33%
- Mean completely Immotile (%) (D. immitis microfilariae; 25 µM, 120 h): 48.67%
- Mean completely Immotile (%) (D. immitis microfilariae; 50 µM, 0 h): 0%
- Mean completely Immotile (%) (D. immitis microfilariae; 50 µM, 24 h): 12%
- Mean completely Immotile (%) (D. immitis microfilariae; 50 µM, 48 h): 26.33%
- Mean completely Immotile (%) (D. immitis microfilariae; 50 µM, 72 h): 43.33%
- Mean completely Immotile (%) (D. immitis microfilariae; 50 µM, 96 h): 64%
- Mean completely Immotile (%) (D. immitis microfilariae; 75 µM, 0 h): 0%
- Mean completely Immotile (%) (D. immitis microfilariae; 75 µM, 24 h): 24.33%
- Mean completely Immotile (%) (D. immitis microfilariae; 75 µM, 48 h): 87.33%
- Mean completely Immotile (%) (D. immitis microfilariae; 75 µM, 72 h): 96.67%
- Mean completely Immotile (%) (D. immitis microfilariae; 75 µM, 96 h): 100%
- Mean completely Immotile (%) (D. immitis microfilariae; 75 µM, 120 h): 100%
- Mean completely Immotile (%) (D. immitis microfilariae; 100 µM, 0 h): 0%
- Mean completely Immotile (%) (D. immitis microfilariae; 100 µM, 24 h): 55.33%
- Mean completely Immotile (%) (D. immitis microfilariae; 100 µM, 48 h): 94.33%
- Mean completely Immotile (%) (D. immitis microfilariae; 100 µM, 72 h): 100%
- Mean completely Immotile (%) (D. immitis microfilariae; 100 µM, 96 h): 100%
- Mean completely Immotile (%) (D. immitis microfilariae; 100 µM, 120 h): 100%
- EC50 (D. immitis microfilariae; 96 h post-treatment, read-out: Anti-parasitic EC50): 32.2 µM
- Completely Immotile Microfilariae (%) (D. immitis microfilariae; 25 µM, 0 h): 0%
- Completely Immotile Microfilariae (%) (D. immitis microfilariae; 25 µM, 24 h): 5% and 3% and 6%
- Completely Immotile Microfilariae (%) (D. immitis microfilariae; 25 µM, 48 h): 10% and 8% and 12.5%
- Completely Immotile Microfilariae (%) (D. immitis microfilariae; 25 µM, 72 h): 28% and 22% and 25%
- Completely Immotile Microfilariae (%) (D. immitis microfilariae; 25 µM, 96 h): 41% and 36% and 38% and 50%
- Completely Immotile Microfilariae (%) (D. immitis microfilariae; 25 µM, 120 h): 50% and 44% and 52%
- Completely Immotile Microfilariae (%) (D. immitis microfilariae; 50 µM, 0 h): 0%
- Completely Immotile Microfilariae (%) (D. immitis microfilariae; 50 µM, 24 h): 10% and 12% and 14%
- Completely Immotile Microfilariae (%) (D. immitis microfilariae; 50 µM, 48 h): 25% and 23% and 31%
- Completely Immotile Microfilariae (%) (D. immitis microfilariae; 50 µM, 72 h): 40% and 44% and 46%
- Completely Immotile Microfilariae (%) (D. immitis microfilariae; 50 µM, 96 h): 60% and 64% and 68% and 100%
- Completely Immotile Microfilariae (%) (D. immitis microfilariae; 50 µM, 120 h): 100%
- Completely Immotile Microfilariae (%) (D. immitis microfilariae; 75 µM, 0 h): 0%
- Completely Immotile Microfilariae (%) (D. immitis microfilariae; 75 µM, 24 h): 21% and 28% and 24%
- Completely Immotile Microfilariae (%) (D. immitis microfilariae; 75 µM, 48 h): 85% and 90% and 87%
- Completely Immotile Microfilariae (%) (D. immitis microfilariae; 75 µM, 72 h): 95% and 97% and 98%
- Completely Immotile Microfilariae (%) (D. immitis microfilariae; 75 µM, 96 h): 100%
- Completely Immotile Microfilariae (%) (D. immitis microfilariae; 75 µM, 120 h): 100%
- Completely Immotile Microfilariae (%) (D. immitis microfilariae; 100 µM, 0 h): 0%
- Completely Immotile Microfilariae (%) (D. immitis microfilariae; 100 µM, 24 h): 50% and 56% and 60%
- Completely Immotile Microfilariae (%) (D. immitis microfilariae; 100 µM, 48 h): 93% and 95%
- Completely Immotile Microfilariae (%) (D. immitis microfilariae; 100 µM, 72 h): 100%
- Completely Immotile Microfilariae (%) (D. immitis microfilariae; 100 µM, 96 h): 100%
- Completely Immotile Microfilariae (%) (D. immitis microfilariae; 100 µM, 120 h): 100%
- effect on microfilariae (D. immitis microfilariae; up to 120 h of culture): killing effect
- IC50 (mammalian cells): 302 µM
